Measured values: PubChem BioAssay (NCI)
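A five-concentration, 48-hour dose response in 96-well plates underlies each endpoint, interpolated linearly between surrounding concentrations. The concentration for full growth arrest is given as TGI.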

Legend:
Test in all cases: inhibition of tumour cell growth, NCI panel, 48 h
SNB-19 CNS = system: SNB-19 CNS
NCI-H23 lung = system: NCI-H23 lung
UACC-257 melanoma = system: UACC-257 melanoma
OVCAR-8 ovarian = system: OVCAR-8 ovarian
HCC-2998 colon = system: HCC-2998 colon
RPMI-8226 leukemia = system: RPMI-8226 leukemia
SN12C renal = system: SN12C renal
NCI-H226 lung = system: NCI-H226 lung
NCI-H460 lung = system: NCI-H460 lung
A549 NSCLC = system: A549 NSCLC
K-562 leukemia = system: K-562 leukemia
HCT-116 colon = system: HCT-116 colon
IGROV1 ovarian = system: IGROV1 ovarian
A498 renal = system: A498 renal
SF-268 CNS = system: SF-268 CNS
CCRF-CEM leukemia = system: CCRF-CEM leukemia
SF-295 CNS = system: SF-295 CNS
PC-3 prostate = system: PC-3 prostate
MCF7 breast = system: MCF7 breast
OVCAR-5 ovarian = system: OVCAR-5 ovarian
SK-MEL-5 melanoma = system: SK-MEL-5 melanoma
LOX IMVI melanoma = system: LOX IMVI melanoma
M14 melanoma = system: M14 melanoma
SNB-75 CNS = system: SNB-75 CNS
MALME-3M melanoma = system: MALME-3M melanoma
HT29 colon = system: HT29 colon
DU-145 prostate = system: DU-145 prostate
TK-10 renal = system: TK-10 renal
OVCAR-3 ovarian = system: OVCAR-3 ovarian
RXF 393 renal = system: RXF 393 renal
UO-31 renal = system: UO-31 renal
EKVX NSCLC = system: EKVX NSCLC
HOP-92 NSCLC = system: HOP-92 NSCLC
MOLT-4 leukemia = system: MOLT-4 leukemia
MDA-MB-435 = system: MDA-MB-435
MDA-N = system: MDA-N
OVCAR-4 ovarian = system: OVCAR-4 ovarian
786-0 renal = system: 786-0 renal
SK-OV-3 ovarian = system: SK-OV-3 ovarian
SW-620 colon = system: SW-620 colon
KM12 colon = system: KM12 colon
SK-MEL-28 melanoma = system: SK-MEL-28 melanoma
NCI-H522 lung = system: NCI-H522 lung
ACHN renal = system: ACHN renal
NCI/ADR-RES ovarian = system: NCI/ADR-RES ovarian
COLO 205 colon = system: COLO 205 colon
HS 578T breast = system: HS 578T breast
CAKI-1 renal = system: CAKI-1 renal
SR leukemia = system: SR leukemia
HL-60(TB) leukemia = system: HL-60(TB) leukemia
SK-MEL-2 melanoma = system: SK-MEL-2 melanoma
UACC-62 melanoma = system: UACC-62 melanoma
U251 CNS = system: U251 CNS
HOP-62 NSCLC = system: HOP-62 NSCLC
MDA-MB-231 breast = system: MDA-MB-231 breast
SF-539 CNS = system: SF-539 CNS
BT-549 breast = system: BT-549 breast
HCT-15 colon = system: HCT-15 colon

In the case of `CC(NC(=O)OC(C)(C)C)C(=O)NC1CCCC1` (configuration not stated), the TGI (SNB-19 CNS) is reported as greater than 100 µM, the TGI (NCI-H23 lung) is reported as greater than 100 µM and the TGI (UACC-257 melanoma) is reported as greater than 100 µM. For the same molecule, the TGI (OVCAR-8 ovarian) was greater than 100 µM, the TGI (HCC-2998 colon) was greater than 100 µM and the TGI (RPMI-8226 leukemia) was greater than 100 µM. For the same molecule, the TGI (SN12C renal) was greater than 100 µM, the TGI (NCI-H226 lung) was greater than 100 µM and the TGI (NCI-H460 lung) was greater than 100 µM. For the same molecule, the TGI (A549 NSCLC) was greater than 100 µM, the TGI (K-562 leukemia) was greater than 100 µM and the TGI (HCT-116 colon) was greater than 100 µM. The TGI (IGROV1 ovarian) was greater than 100 µM, the TGI (A498 renal) was greater than 100 µM and the TGI (SF-268 CNS) was greater than 100 µM. It also gave a TGI (CCRF-CEM leukemia) greater than 100 µM, a TGI (SF-295 CNS) greater than 100 µM and a TGI (PC-3 prostate) greater than 100 µM. For the same molecule, the TGI (MCF7 breast) was greater than 100 µM, the TGI (OVCAR-5 ovarian) was greater than 100 µM and the TGI (SK-MEL-5 melanoma) was greater than 100 µM. It also gave a TGI (LOX IMVI melanoma) greater than 100 µM, a TGI (M14 melanoma) greater than 100 µM and a TGI (SNB-75 CNS) greater than 100 µM. For the same molecule, the TGI (MALME-3M melanoma) was greater than 100 µM, the TGI (HT29 colon) was greater than 100 µM and the TGI (DU-145 prostate) was greater than 100 µM. The TGI (TK-10 renal) was greater than 100 µM, the TGI (OVCAR-3 ovarian) was greater than 100 µM and the TGI (RXF 393 renal) was greater than 100 µM. For the same molecule, the TGI (UO-31 renal) was greater than 100 µM, the TGI (EKVX NSCLC) was greater than 100 µM and the TGI (HOP-92 NSCLC) was greater than 100 µM. The TGI (MOLT-4 leukemia) was greater than 100 µM, the TGI (MDA-MB-435) was greater than 100 µM and the TGI (MDA-N) was greater than 100 µM. For the same molecule, the TGI (OVCAR-4 ovarian) was greater than 100 µM, the TGI (786-0 renal) was greater than 100 µM and the TGI (SK-OV-3 ovarian) was greater than 100 µM. For the same molecule, the TGI (SW-620 colon) was greater than 100 µM, the TGI (KM12 colon) was greater than 100 µM and the TGI (SK-MEL-28 melanoma) was greater than 100 µM. It also gave a TGI (NCI-H522 lung) greater than 100 µM, a TGI (ACHN renal) greater than 100 µM and a TGI (NCI/ADR-RES ovarian) greater than 100 µM. The TGI (COLO 205 colon) was greater than 100 µM, the TGI (HS 578T breast) was greater than 100 µM and the TGI (CAKI-1 renal) was greater than 100 µM. For the same molecule, the TGI (SR leukemia) was greater than 100 µM and the TGI (HL-60(TB) leukemia) was greater than 100 µM.

`C=C1CC[C@]2(C)[C@H](CC[C@@]34C[C@@H](CC[C@H]32)[C@@H](C(=O)O)C4)C1(C)C` was tested, and the TGI (SNB-19 CNS) was greater than 12.5 µM, the TGI (SK-MEL-2 melanoma) was greater than 12.5 µM and the TGI (NCI-H23 lung) was greater than 12.5 µM. It also gave a TGI (UACC-257 melanoma) greater than 12.5 µM, a TGI (OVCAR-8 ovarian) greater than 12.5 µM and a TGI (SN12C renal) greater than 12.5 µM. The TGI (NCI-H226 lung) was greater than 12.5 µM, the TGI (UACC-62 melanoma) was greater than 12.5 µM and the TGI (U251 CNS) was greater than 12.5 µM. For the same molecule, the TGI (NCI-H460 lung) was greater than 12.5 µM, the TGI (A549 NSCLC) was greater than 12.5 µM and the TGI (K-562 leukemia) was greater than 12.5 µM. It also gave a TGI (HCT-116 colon) greater than 12.5 µM, a TGI (IGROV1 ovarian) greater than 12.5 µM and a TGI (A498 renal) of 9.3 µM. For the same molecule, the TGI (CCRF-CEM leukemia) was greater than 12.5 µM, the TGI (SF-295 CNS) was greater than 12.5 µM and the TGI (HOP-62 NSCLC) was greater than 12.5 µM. It also gave a TGI (PC-3 prostate) greater than 12.5 µM, a TGI (MCF7 breast) greater than 12.5 µM and a TGI (MDA-MB-231 breast) greater than 12.5 µM. It also gave a TGI (SF-539 CNS) greater than 12.5 µM, a TGI (OVCAR-5 ovarian) greater than 12.5 µM and a TGI (SK-MEL-5 melanoma) greater than 12.5 µM. The TGI (LOX IMVI melanoma) was greater than 12.5 µM, the TGI (M14 melanoma) was greater than 12.5 µM and the TGI (MALME-3M melanoma) was greater than 12.5 µM. For the same molecule, the TGI (HT29 colon) was greater than 12.5 µM, the TGI (TK-10 renal) was greater than 12.5 µM and the TGI (OVCAR-3 ovarian) was greater than 12.5 µM. For the same molecule, the TGI (RXF 393 renal) was greater than 12.5 µM, the TGI (UO-31 renal) was greater than 12.5 µM and the TGI (EKVX NSCLC) was greater than 12.5 µM. For the same molecule, the TGI (HOP-92 NSCLC) was greater than 12.5 µM, the TGI (MOLT-4 leukemia) was greater than 12.5 µM and the TGI (MDA-MB-435) was greater than 12.5 µM. The TGI (MDA-N) was greater than 12.5 µM, the TGI (OVCAR-4 ovarian) was greater than 12.5 µM and the TGI (786-0 renal) was greater than 12.5 µM. It also gave a TGI (SK-OV-3 ovarian) greater than 12.5 µM, a TGI (SW-620 colon) greater than 12.5 µM and a TGI (KM12 colon) greater than 12.5 µM. The TGI (BT-549 breast) was greater than 12.5 µM, the TGI (SK-MEL-28 melanoma) was greater than 12.5 µM and the TGI (ACHN renal) was greater than 12.5 µM. The TGI (HCT-15 colon) was greater than 12.5 µM, the TGI (NCI/ADR-RES ovarian) was greater than 12.5 µM and the TGI (COLO 205 colon) was greater than 12.5 µM. It also gave a TGI (HS 578T breast) greater than 12.5 µM, a TGI (CAKI-1 renal) greater than 12.5 µM and a TGI (SR leukemia) greater than 12.5 µM. It also gave a TGI (HL-60(TB) leukemia) greater than 12.5 µM.
